Source: PubChem BioAssay (NCI)
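Tested at 5 concentrations; 48 h exposure; 96-well plates; endpoints linearly interpolated, else capped at highest concentration. GI50 marks 50% less growth. The concentration for full growth arrest is given as TGI.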

Experiments:
Test in all cases: growth of human tumour cells (NCI), 48 h
[1] = system: 786-0 renal
[2] = system: A498 renal
[3] = system: A549 NSCLC
[4] = system: ACHN renal
[5] = system: BT-549 breast
[6] = system: CAKI-1 renal
[7] = system: CCRF-CEM leukemia
[8] = system: COLO 205 colon
[9] = system: DU-145 prostate
[10] = system: EKVX NSCLC
[11] = system: HCC-2998 colon
[12] = system: HCT-116 colon
[13] = system: HCT-15 colon
[14] = system: HL-60(TB) leukemia
[15] = system: HOP-62 NSCLC
[16] = system: HOP-92 NSCLC
[17] = system: HS 578T breast
[18] = system: HT29 colon
[19] = system: IGROV1 ovarian
[20] = system: K-562 leukemia
[21] = system: KM12 colon
[22] = system: LOX IMVI melanoma
[23] = system: M14 melanoma
[24] = system: MALME-3M melanoma
[25] = system: MCF7 breast
[26] = system: MDA-MB-231 breast
[27] = system: MDA-MB-435
[28] = system: MDA-MB-468 breast
[29] = system: MOLT-4 leukemia
[30] = system: NCI-H226 lung
[31] = system: NCI-H23 lung
[32] = system: NCI-H460 lung
[33] = system: NCI-H522 lung
[34] = system: NCI/ADR-RES ovarian
[35] = system: OVCAR-3 ovarian
[36] = system: OVCAR-4 ovarian
[37] = system: OVCAR-5 ovarian
[38] = system: OVCAR-8 ovarian
[39] = system: PC-3 prostate
[40] = system: RPMI-8226 leukemia
[41] = system: RXF 393 renal
[42] = system: SF-268 CNS
[43] = system: SF-295 CNS
[44] = system: SF-539 CNS
[45] = system: SK-MEL-2 melanoma
[46] = system: SK-MEL-28 melanoma
[47] = system: SK-MEL-5 melanoma
[48] = system: SK-OV-3 ovarian
[49] = system: SN12C renal
[50] = system: SNB-19 CNS
[51] = system: SNB-75 CNS
[52] = system: SR leukemia
[53] = system: SW-620 colon
[54] = system: T-47D breast
[55] = system: TK-10 renal
[56] = system: U251 CNS
[57] = system: UACC-257 melanoma
[58] = system: UACC-62 melanoma
[59] = system: UO-31 renal

With `Cc1ccc(C(=O)C(c2c[nH]c3ccccc23)c2c[nH]c3ccccc23)cc1` the GI50 [1] was 12.9 µM, the TGI [1] was 29.1 µM and the GI50 [2] was 20.5 µM. The TGI [2] was 35.9 µM, the GI50 [3] was 15 µM and the TGI [3] was 33.1 µM. The GI50 [4] was 10.9 µM, the TGI [4] was 22.8 µM and the GI50 [5] was 12.8 µM. For the same molecule, the TGI [5] was 26.5 µM, the GI50 [6] was 9.39 µM and the TGI [6] was 21.4 µM. For the same molecule, the GI50 [7] was 3.02 µM, the TGI [7] was greater than 100 µM and the GI50 [8] was 17.1 µM. The TGI [8] was 33 µM, the GI50 [9] was 14.4 µM and the TGI [9] was 27.8 µM. It also gave a GI50 [10] of 13.7 µM, a TGI [10] of 27 µM and a GI50 [11] of 13.7 µM. The TGI [11] was 27 µM, the GI50 [12] was 3.76 µM and the TGI [12] was 15.2 µM. It also gave a GI50 [13] of 4.73 µM, a TGI [13] of 17.6 µM and a GI50 [14] of 6.82 µM. The TGI [14] was 38.2 µM, the GI50 [15] was 18 µM and the TGI [15] was 42.1 µM. It also gave a GI50 [16] of 16.3 µM, a TGI [16] of 33.3 µM and a GI50 [17] of 16.6 µM. It also gave a TGI [17] of 47.1 µM, a GI50 [18] of 6.98 µM and a TGI [18] of 22.1 µM. It also gave a GI50 [19] of 11.7 µM, a TGI [19] of 26.5 µM and a GI50 [20] of 3.88 µM. For the same molecule, the TGI [20] was greater than 100 µM, the GI50 [21] was 16.7 µM and the TGI [21] was 31.1 µM. For the same molecule, the GI50 [22] was 3.21 µM, the TGI [22] was 13.8 µM and the GI50 [23] was 12.6 µM. It also gave a TGI [23] of 29.1 µM, a GI50 [24] of 16 µM and a TGI [24] of 31.2 µM. It also gave a GI50 [25] of 3.77 µM, a TGI [25] of 15.7 µM and a GI50 [26] of 14.1 µM. The TGI [26] was 31 µM, the GI50 [27] was 15.1 µM and the TGI [27] was 29.7 µM. It also gave a GI50 [28] of 14.1 µM, a TGI [28] of 29 µM and a GI50 [29] of 3.95 µM. It also gave a TGI [29] of 80.4 µM, a GI50 [30] of 13.8 µM and a TGI [30] of 29.4 µM. It also gave a GI50 [31] of 11.5 µM, a TGI [31] of 25.9 µM and a GI50 [32] of 11.2 µM. For the same molecule, the TGI [32] was 28.7 µM, the GI50 [33] was 10.7 µM and the TGI [33] was 24.1 µM. The GI50 [34] was 13.1 µM, the TGI [34] was 32.2 µM and the GI50 [35] was 11.3 µM. It also gave a TGI [35] of 23.6 µM, a GI50 [36] of 13.2 µM and a TGI [36] of 28.2 µM. The GI50 [37] was 14.7 µM, the TGI [37] was 29 µM and the GI50 [38] was 16.7 µM. The TGI [38] was 34.1 µM, the GI50 [39] was 6.96 µM and the TGI [39] was 28.3 µM. The GI50 [40] was 8.31 µM, the TGI [40] was greater than 100 µM and the GI50 [41] was 12.5 µM. It also gave a TGI [41] of 29.6 µM, a GI50 [42] of 10.6 µM and a TGI [42] of 25.4 µM. It also gave a GI50 [43] of 14.8 µM, a TGI [43] of 28.1 µM and a GI50 [44] of 15.2 µM. For the same molecule, the TGI [44] was 29 µM, the GI50 [45] was 14.5 µM and the TGI [45] was 28.7 µM. The GI50 [46] was 14.5 µM, the TGI [46] was 28.1 µM and the GI50 [47] was 15.5 µM. The TGI [47] was 29.2 µM, the GI50 [48] was 15.9 µM and the TGI [48] was 33 µM. For the same molecule, the GI50 [49] was 11.1 µM, the TGI [49] was 24.2 µM and the GI50 [50] was 16.9 µM. The TGI [50] was 31.4 µM, the GI50 [51] was 7.91 µM and the TGI [51] was 21 µM. It also gave a GI50 [52] of 11 µM, a TGI [52] of 77.6 µM and a GI50 [53] of 3.55 µM. For the same molecule, the TGI [53] was 13.5 µM, the GI50 [54] was 9.57 µM and the TGI [54] was 28.4 µM. It also gave a GI50 [55] of 24.8 µM, a TGI [55] of 40.6 µM and a GI50 [56] of 15.9 µM. It also gave a TGI [56] of 30.9 µM, a GI50 [57] of 13.2 µM and a TGI [57] of 26.8 µM. The GI50 [58] was 13.9 µM, the TGI [58] was 27.9 µM and the GI50 [59] was 11.3 µM. The TGI [59] was 23.4 µM.

`COc1ccc(C(C)=C(c2ccc(OCCCN(C)C)cc2)c2ccc(OCCCN(C)C)cc2)cc1` gave a GI50 [1] of 0.491 µM, a TGI [1] of 1.46 µM and a GI50 [2] of 2.73 µM. The TGI [2] was 5.51 µM, the GI50 [3] was 2.99 µM and the TGI [3] was 7.48 µM. The GI50 [4] was 2.62 µM, the TGI [4] was 5.23 µM and the GI50 [5] was 3.2 µM. For the same molecule, the TGI [5] was 6.22 µM, the GI50 [6] was 2.71 µM and the TGI [6] was 5.35 µM. The GI50 [7] was 0.593 µM, the TGI [7] was 1.96 µM and the GI50 [8] was 0.799 µM. It also gave a TGI [8] of 3.08 µM, a GI50 [9] of 2.1 µM and a TGI [9] of 4.6 µM. It also gave a GI50 [10] of 2.98 µM, a TGI [10] of 5.89 µM and a GI50 [11] of 2.16 µM. It also gave a TGI [11] of 4.79 µM, a GI50 [12] of 0.795 µM and a TGI [12] of 3.21 µM. It also gave a GI50 [13] of 1.09 µM, a TGI [13] of 3.79 µM and a GI50 [14] of 0.735 µM. It also gave a TGI [14] of 3.03 µM, a GI50 [15] of 3.08 µM and a TGI [15] of 6.17 µM. For the same molecule, the GI50 [16] was 1.1 µM, the TGI [16] was 4.27 µM and the GI50 [17] was 2.44 µM. The TGI [17] was 6.22 µM, the GI50 [18] was 0.426 µM and the TGI [18] was 0.867 µM. It also gave a GI50 [19] of 2.96 µM, a TGI [19] of 5.75 µM and a GI50 [20] of 0.621 µM. It also gave a TGI [20] of 5.04 µM, a GI50 [21] of 2.6 µM and a TGI [21] of 5.5 µM. The GI50 [22] was 0.625 µM, the TGI [22] was 2.08 µM and the GI50 [23] was 0.427 µM. It also gave a TGI [23] of 0.93 µM, a GI50 [24] of 0.558 µM and a TGI [24] of 1.89 µM. It also gave a GI50 [25] of 0.418 µM, a TGI [25] of 3.06 µM and a GI50 [26] of 1.55 µM. For the same molecule, the TGI [26] was 4.23 µM, the GI50 [27] was 0.537 µM and the TGI [27] was 1.83 µM. The GI50 [28] was 0.705 µM, the TGI [28] was 3.01 µM and the GI50 [29] was 1.08 µM. The TGI [29] was 4.05 µM, the GI50 [30] was 3 µM and the TGI [30] was 6.28 µM. The GI50 [31] was 2.9 µM, the TGI [31] was 5.88 µM and the GI50 [32] was 0.899 µM. It also gave a TGI [32] of 3.43 µM, a GI50 [33] of 2.42 µM and a TGI [33] of 5.33 µM. It also gave a GI50 [34] of 3.09 µM, a TGI [34] of 6.15 µM and a GI50 [35] of 0.678 µM. It also gave a TGI [35] of 2.3 µM, a GI50 [36] of 2.22 µM and a TGI [36] of 5.22 µM. It also gave a GI50 [37] of 2.82 µM, a TGI [37] of 5.55 µM and a GI50 [38] of 3.62 µM. It also gave a TGI [38] of 7.6 µM, a GI50 [39] of 2.75 µM and a TGI [39] of 6.07 µM. It also gave a GI50 [40] of 2.18 µM, a TGI [40] of 8.53 µM and a GI50 [41] of 1.09 µM. For the same molecule, the TGI [41] was 3.92 µM, the GI50 [42] was 2.8 µM and the TGI [42] was 5.94 µM. For the same molecule, the GI50 [43] was 2.49 µM, the TGI [43] was 5.29 µM and the GI50 [44] was 0.788 µM. It also gave a TGI [44] of 2.85 µM, a GI50 [45] of 3.33 µM and a TGI [45] of 6.33 µM. The GI50 [46] was 2.49 µM, the TGI [46] was 5.07 µM and the GI50 [47] was 2.57 µM. For the same molecule, the TGI [47] was 5.2 µM, the GI50 [48] was 3.26 µM and the TGI [48] was 6.19 µM. For the same molecule, the GI50 [49] was 2.95 µM, the TGI [49] was 5.72 µM and the GI50 [50] was 3.2 µM. The TGI [50] was 6.06 µM, the GI50 [51] was 2.13 µM and the TGI [51] was 4.66 µM. For the same molecule, the GI50 [52] was 0.523 µM, the TGI [52] was 1.73 µM and the GI50 [53] was 0.982 µM. It also gave a TGI [53] of 3.62 µM, a GI50 [54] of 1.57 µM and a TGI [54] of 4.98 µM. The GI50 [55] was 3.38 µM, the TGI [55] was 6.36 µM and the GI50 [56] was 2.71 µM. It also gave a TGI [56] of 6 µM, a GI50 [57] of 3.27 µM and a TGI [57] of 6.42 µM. It also gave a GI50 [58] of 2.97 µM, a TGI [58] of 5.73 µM and a GI50 [59] of 2.74 µM. For the same molecule, the TGI [59] was 5.4 µM.
